Changes are numbered by the printed parent chain.
Legend:
TPα^WT = biological target: T1, TPα^WT (Homo sapiens, UniProt P21731); test: [3H]SQ29,548 radioligand binding, Scatchard analysis, HEK.TPα^WT
T1 construct: expressed in transfected cells
Procedure: Cells were harvested by centrifugation at 500×g at 4 °C for 5 min and washed three times with ice-cold Ca^2+/Mg^2+-free phosphate-buffered saline (PBS). TP radioligand binding assays were carried out at 30 °C for 30 min in 100 μl reactions in the presence of 0–40 nM [^3H] […] Protein determinations were carried out using the Bradford assay.
Radioligand binding and Scatchard analysis data were analysed using GraphPad Prisim V4.0 programme (GraphPad Software Inc., San Diego CA, USA). Statistical analyses were carried out using the unpaired Student's t test using the Statworks Analysis Package. p-values ≤ 0.01 indicated statistically significant differences.

TPα^S331A = biological target: T2, TPα^S331A (Homo sapiens, UniProt P21731, S331A); test: Intracellular calcium mobilization, HEK.TPα^S331A cells; type: cell-based; settings: for Δ[Ca2+]i, U46619-induced: HEK.TPα^S331A
T2 construct: expressed in transfected cells
T2 sequence (P21731 1-343 S331A): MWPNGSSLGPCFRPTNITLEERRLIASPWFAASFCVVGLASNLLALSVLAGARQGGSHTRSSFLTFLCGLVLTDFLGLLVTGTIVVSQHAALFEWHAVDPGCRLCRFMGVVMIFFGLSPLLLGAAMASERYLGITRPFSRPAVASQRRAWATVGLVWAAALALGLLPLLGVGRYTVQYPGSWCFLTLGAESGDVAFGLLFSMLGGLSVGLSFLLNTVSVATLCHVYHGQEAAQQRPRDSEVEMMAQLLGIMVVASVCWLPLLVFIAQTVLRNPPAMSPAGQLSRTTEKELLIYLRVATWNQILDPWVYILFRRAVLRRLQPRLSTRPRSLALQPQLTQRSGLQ
Procedure: (§1) Measurement of intracellular calcium mobilization ([Ca^2+]i) in FURA2/AM preloaded HEK 293 cell lines (2 × 10^6 cells/dish), each transiently co-transfected with pADVA (10 μg), and pCMV:Gαq (25 μg), was carried out as previously described. To investigate the effect of GRK2/βARK1 on TP-mediated [Ca^2+]i mobilization, HEK.TPα or HEK.TPβ cells (2 × 10^6 cells/dish) were co-transfected with pADVA (10 μg), pCMV:Gαq (25 μg) along with pRK5:βARK1^495–689 (25 μg), encoding a dominant negative form of GRK2/βARK1[39]. Approximately 48 h post-transfection, cells were harvested by scraping, washed twice in ice-cold PBS and resuspended in HBSSHB (modified Ca^2+/Mg^2+-free Hank's buffered salt solution, containing […], pH 7.67, 0.1% bovine serum albumin (BSA)) buffer at 10^7 cells/ml and incubated in the dark with 5 μM FURA2/AM for 45 min at 37 °C. […] For each measurement of [Ca^2+]i mobilization, aliquots of cells were diluted to 0.825 × 10^6 cells/ml in HBSSHB, 1 mM CaCl2 and FURA2 fluorescence was recorded (2 ml aliquots of cells) at 37^ °C with gentle stirring with a Perkin Elmer-Cetus LS50-B spectrofluorometer at excitation wavelengths of 340 nm and 380 nm and emission wavelength of 510 nm, respectively.
(§2) Cells were stimulated with the TP agonist U46619 (1 μM) and changes in [Ca^2+]i mobilization were monitored as a function of time. To assess agonist-mediated homologous desensitization, cells (0.825 × 10^6 cells/ml; 2 ml per assay) were stimulated with 1 μM U46619 (Primary stimulation) or, as a control, with the vehicle for 4 min; thereafter, cells were collected by centrifugation (900×g, 5 min); were washed twice in 2 ml HBSSHB, 1 mM CaCl2; and finally resuspended in 2 ml HBSSHB,1 mM CaCl2 and were left to recover over various time intervals (ranging from 0 to 60 min); thereafter, cells re-stimulated with 1 μM U46619 (Secondary stimulation) and changes in [Ca^2+]i mobilization were monitored as a function of time. […]

TPα^S331,T337A = biological target: T3, TPα^S331,T337A (Homo sapiens, UniProt P21731, S331A/T337A); test: Intracellular calcium mobilization, HEK.TPα^S331,T337A cells; type: cell-based; settings: for Δ[Ca2+]i, U46619-induced: HEK.TPα^S331,T337A
T3 construct: expressed in transfected cells
T3 sequence (P21731 1-343 S331A/T337A): T2 sequence (P21731 1-343 S331A) with T337A
Procedure: as §1, §2

[1] = secondary 1 μM U46619 at 15 min

T1 sequence (P21731 whole entry): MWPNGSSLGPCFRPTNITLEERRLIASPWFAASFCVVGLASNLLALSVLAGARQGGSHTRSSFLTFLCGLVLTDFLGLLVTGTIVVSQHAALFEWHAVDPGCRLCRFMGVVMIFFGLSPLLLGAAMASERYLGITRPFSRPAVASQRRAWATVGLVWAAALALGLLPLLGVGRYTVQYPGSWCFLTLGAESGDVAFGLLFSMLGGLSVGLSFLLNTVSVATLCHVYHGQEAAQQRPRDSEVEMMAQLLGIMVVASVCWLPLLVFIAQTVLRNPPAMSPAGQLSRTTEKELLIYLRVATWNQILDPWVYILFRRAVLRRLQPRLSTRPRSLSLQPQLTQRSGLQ

Row | Bmax (pmol/mg protein ± S.E.M.) (TPα^WT) [pmol/mg protein] | Δ[Ca2+]i, U46619-induced (TPα^S331A; primary 1 μM U46619 4 min) [nM] | Δ[Ca2+]i, U46619-induced (TPα^S331A; [1]) [nM] | secondary U46619 [Ca2+]i response relative to primary response (TPα^S331A; TPα^S331A) [%] | Δ[Ca2+]i, U46619-induced (TPα^S331,T337A; primary 1 μM U46619 4 min) [nM] | Δ[Ca2+]i, U46619-induced (TPα^S331,T337A; [1]) [nM] | secondary U46619 [Ca2+]i response relative to primary response (TPα^S331,T337A; TPα^S331,T337A) [%] | SMILES
1 | 4.52 ± 0.05 | – | – | – | – | – | – | O=C(O)CCC/C=C\C[C@@H]1[C@H](CNNC(=O)Nc2ccccc2)[C@H]2CC[C@@H]1O2 [SQ29,548]
2 | – | 207 ± 9.1 | 80 ± 6.8 | 39 | 181 ± 6.5 | 60 ± 7.1 | 33 | CCCCC[C@H](O)/C=C/[C@@H]1[C@@H](C/C=C\CCCC(=O)O)[C@H]2CO[C@@H]1C2 [U46619]
